In brackets after ≈: the same amount, converted by molar mass.
Key:
[1] = Cytotoxicity against mouse RAW264 cells assessed as cell viability after 24 hrs by MTT assay; type: functional, cell-based
[2] = test system: C6; assay: Cytotoxicity against rat C6 cells assessed as cell viability after 24 hrs by MTT assay; type: functional, cell-based; details: C6, 24 h
[3] = Mus musculus, RAW264.7, 24 h, read-out: IC50

Compound	IC50 [1, 3]	IC50 [2]	IC50 ([1]; raw264)
CC1=C(/C=C/[C@@H](C)[C@H]2CC[C@H]3C4=CC[C@H]5[C@H](O)[C@H](N)CC[C@]5(C)[C@H]4CC[C@]23C)CCN(C)C1 [4ALPHA-HYDROXYDEMETHYLPLAKINAMINE B]	16.2 mg/L (≈ 35.8 µM)	26.1 mg/L (≈ 57.7 µM)	–
CC(C)C1=CC(=O)N/C1=C\[C@@H](C)[C@H]1CC[C@H]2C3=CC[C@H]4C[C@H](N)CC[C@]4(C)[C@H]3CC[C@]12C [PLAKINAMINE G]	–	6.8 mg/L (≈ 15.6 µM)	Not Active
CC1=C(/C=C/[C@@H](C)[C@H]2CC[C@H]3C4=CC[C@H]5C(=O)[C@@H](N(C)C)CC[C@]5(C)[C@H]4CC[C@]23C)CCNC1 [PLAKINAMINE H]	61 mg/L (≈ 131 µM)	9 mg/L (≈ 19.4 µM)	–
CC(C)C1CCNC1C[C@@H](C)[C@H]1CC[C@H]2C3=CC[C@H]4C[C@H](N)CC[C@]4(C)[C@H]3CC[C@]12C (stereo partly drawn) [TETRAHYDROPLAKINAMINE A]	–	1.4 mg/L (≈ 3.28 µM)	Not Active
